Marks after values point to notes of the source that are not given here.
Key:
Assay type in all cases: in vivo
[1] = system: male mice (ICR); assay: Residence time on a rotarod rotating at a fixed speed (Fixed 15 r.p.m. Rotarod, muscle relaxation); details: intraperitoneal (10 ul/g, bw), at time of maximum effect, 50% vs vehicle only (100%), 15 rpm, max 10 min
Description: (§1) For testing, male mice (ICR) were purchased from ORIENT BIO INC. (Korea), divided into several groups with 6 mice in each group, and were adapted for 4-5 days. The mice having the weight ranging from 19 g to 26 g were employed for the test. The pharmacological effect of the test compounds on muscle relaxation was evaluated by Rotarod test, grip strength test, and muscular force (wire hang) test. All mice were adapted to the test environment at one hour before starting the tests. The pharmacological effects of all the test compounds were evaluated by administration through peritoneal cavity of the mice (10 ul/g, bw).
All the mice to be tested were preliminarily trained for 5 minutes on a rod rotating at the rate of 15 revolutions per a minute. The mice that could not remain on the rod without falling off therefrom for a minimum of 2 minutes were excluded from this testing. After the training, all the mice were allowed to rest for 45-60 minutes. Before the administration of the test compounds, the mice were subjected to a further training for one minute on the rod rotating under the same condition, where the mice falling off from the rod were excluded from this experimentation. […] In case a mouse stays on the rod until the test is finished, the time was recorded as 10 minutes. As test time for evaluation, a maximum of 10 minutes was applied. This experimentation was conducted according to the method described in the reference, ‘Yasuda et al. (2005) Antipyretic, analgesic and muscle relaxant activities of Pueraria isoflavonoids and their metabolites from Pueraria lobata Ohwi—a traditional Chinese drug. Biol. Pharm. Bull. 28: 1224-1228’.
(§2) The obtained results are shown as mean±sem. The difference between the groups was statistically analyzed by ANOVA, and then, further examined by Dunnett's test or Bonferroni test. If p is less than 0.05, it was determined that the difference between the groups had statistical significance.
(§3) The results of muscle relaxation activity of the phenyl carbamate compounds measured in above Experimental Examples 1 to 4 are shown in following Table 3.

[2] = system: male mice (ICR); assay: Endurance time on a rotarod rotating at accelerated speed (Acc. Rotarod, muscle relaxation); details: Mus musculus, ip, 5 min, intraperitoneal (10 ul/g, bw), at time of maximum effect, 50% of muscle relaxation activity vs vehicle only (100%), rod accelerated 4 to 40 rpm, max 5 min, read-out: MR test ED50, I = Acc. Rotarod
Description: as §1
At 24 hours before testing, the mice to be tested were preliminarily trained for 5 minutes on a rod rotating at the rate of 6 revolutions per a minute. The pharmacological effect on muscle relaxation of the test compounds were evaluated by observing the mice on a rod for 5 minutes, where the rod was accelerated from 4 to 40 revolutions per a minute during the test time. The endurance time that each mouse endures on the acceleratedly rotated rod without falling off from the rod was recorded. As test time for evaluation, a maximum of 5 minutes was applied. […] This experimentation was conducted according to the method described in the reference, ‘Monville et al. (2006) Comparison of incremental and accelerating protocol of the rotarod test for the assessment of motor deficits in the 6-OHDA model. J. Neurosci. Meth. 158: 219-223’.
as §2, §3

[3] = system: male mice (ICR); assay: Grip strength test (forelimbs, muscle relaxation); details: for ED50: Mus musculus, ip, intraperitoneal (10 ul/g, bw), at time of maximum effect, 50% vs vehicle only (100%), read-out: MR test ED50, III = Grip strength
Description: as §1
A grip strength test using the test animals' forelimbs was performed using an instrument equipped with triangle ring and designed so as to easily grip with the forelimbs of experimental animals, manufactured from Ugo Basile Inc. (Ugo Basile, Model 47106, Italy). The test was conducted before and after administration of the compounds to evaluate the effects thereof. […] The mouse was made to grip the rod with its forelimbs, and its tail was pulled, where the force at which the mouse detached from the rod was recorded. The instrument indicated the force in grams. All of the mice were given 3 opportunities for test, and the 3 highest values among the test opportunities were selected and the mean value was used as the test result. This experimentation was conducted according to the method described in the reference, ‘Nevins et al. (1993) Quantitative grip strength assessment as a means of evaluating muscle relaxation in mice. Psychopharmacol. 110: 92-96’.
as §2, §3

[4] = system: male mice (ICR); assay: Wire hang test (muscular force, muscle relaxation); details: for ED50: Mus musculus, ip, intraperitoneal (10 ul/g, bw), at time of maximum effect, 50% vs vehicle only (100%), read-out: MR test ED50, IV = Wire hang; for IV = Wire hang, effect (%) compared to that of control treated with vehicle only: 100 mg/kg administered, intraperitoneal
Description: as §1
This experimentation was conducted using a metal wire of 30 cm in length, which was suspended between two pillars at a height of about 40 cm from the bottom covered with a soft pad. […] Each mouse was made to grip the wire using two forelimbs, and the elapse time before the mouse fell off from the wire to the pad on the bottom was recorded in seconds. Each mouse was given 5 opportunities for this test at an interval of 2 minutes period. The highest 3 records among the test opportunities were selected and the mean value was used as the test result. This experimentation was conducted according to the method described in the reference, ‘Jacqueline N. Crawley (1999) Behavioral phenotyping of transgenic and knockout mice: experimental design and evaluation of general health, sensory functions, motor abilities, and specific behavioral tests. Brain Res. 835: 18-26’.
as §2, §3

Structure (SMILES): C[C@H](OC(=O)NC1CC1)[C@@H](O)c1ccccc1Cl [Compound 18, 1-(2-chlorophenyl)-(S)-1-hydroxypropyl-(S)-2-N-cyclopropylcarbamate]
- MR test ED50, II = Fixed 15 r.p.m. Rotarod [1]: 61.2 mg/kg, bw

Structure (SMILES): C[C@@H](OC(N)=O)[C@H](O)c1ccccc1I [Compound 66, 1-(2-iodophenyl)-(R)-1-hydroxypropyl-(R)-2-carbamate]
- MR test ED50, II = Fixed 15 r.p.m. Rotarod [1]: 67.9 mg/kg, bw

Structure (SMILES): C[C@H](OC(N)=O)[C@@H](O)c1ccccc1I [Compound 65, 1-(2-iodophenyl)-(S)-1-hydroxypropyl-(S)-2-carbamate]
- MR test ED50, II = Fixed 15 r.p.m. Rotarod [1]: 28.0 mg/kg, bw

Structure (SMILES): C[C@@H](OC(N)=O)[C@@H](O)c1ccccc1Cl [Compound 5, 1-(2-chlorophenyl)-(S)-1-hydroxypropyl-(R)-2-carbamate]
- ED50 [2]: 66.9 mg/kg
- MR test ED50, II = Fixed 15 r.p.m. Rotarod [1]: 65.5 mg/kg, bw
- ED50 [3]: 95 mg/kg
- ED50 [4]: 52.5 mg/kg

Structure (SMILES): CC(C)NC(=O)O[C@@H](C)[C@@H](O)c1ccccc1Cl [Compound 17, 1-(2-chlorophenyl)-(S)-1-hydroxypropyl-(S)-2-N-isopropylcarbamate]
- MR test ED50, II = Fixed 15 r.p.m. Rotarod [1]: 66.4 mg/kg, bw

Structure (SMILES): CC(C)NC(=O)O[C@H](C)[C@H](O)c1ccccc1Cl [Compound 24, 1-(2-chlorophenyl)-(R)-1-hydroxypropyl-(R)-2-N-isopropylcarbamate]
- MR test ED50, II = Fixed 15 r.p.m. Rotarod [1]: 44.3 mg/kg, bw

Structure (SMILES): C[C@@H](OC(N)=O)[C@H](O)c1ccccc1Cl [Compound 2, 1-(2-chlorophenyl)-(R)-1-hydroxypropyl-(R)-2-carbamate]
- MR test ED50, II = Fixed 15 r.p.m. Rotarod [1]: 76.5 mg/kg, bw

Structure (SMILES): C[C@@H](OC(=O)NC1CC1)[C@H](O)c1ccccc1Cl [Compound 25, 1-(2-chlorophenyl)-(R)-1-hydroxypropyl-(R)-2-N-cyclopropylcarbamate]
- ED50 [2]: 30 mg/kg
- MR test ED50, II = Fixed 15 r.p.m. Rotarod [1]: 18.3 mg/kg, bw
- ED50 [3]: 46.1 mg/kg
- ED50 [4]: 32.9 mg/kg

Structure (SMILES): CCCNC(=O)O[C@@H](C)[C@@H](O)c1ccccc1Cl [Compound 16, 1-(2-chlorophenyl)-(S)-1-hydroxypropyl-(S)-2-N-propylcarbamate]
- MR test ED50, II = Fixed 15 r.p.m. Rotarod [1]: 61.6 mg/kg, bw

Structure (SMILES): CC[C@H](OC(N)=O)[C@@H](O)c1ccccc1I [Compound 67, 1-(2-iodophenyl)-(S)-1-hydroxybutyl-(S)-2-carbamate]
- MR test ED50, II = Fixed 15 r.p.m. Rotarod [1]: 30.2 mg/kg, bw

Structure (SMILES): C[C@H](OC(N)=O)[C@H](O)c1ccccc1Cl [Compound 4, 1-(2-chlorophenyl)-(R)-1-hydroxypropyl-(S)-2-carbamate]
- ED50 [2]: 69.3 mg/kg
- MR test ED50, II = Fixed 15 r.p.m. Rotarod [1]: 65.0 mg/kg, bw
- ED50 [3]: 124 mg/kg
- ED50 [4]: 40 mg/kg

Structure (SMILES): CNC(=O)O[C@@H](C)[C@@H](O)c1ccccc1Cl [Compound 15, 1-(2-chlorophenyl)-(S)-1-hydroxypropyl-(S)-2-N-methylcarbamate]
- MR test ED50, II = Fixed 15 r.p.m. Rotarod [1]: 42.8 mg/kg, bw

Structure (SMILES): C[C@H](OC(N)=O)[C@@H](O)c1ccccc1F [Compound 63, 1-(2-fluorophenyl)-(S)-1-hydroxypropyl-(S)-2-carbamate]
- IV = Wire hang, effect (%) compared to that of control treated with vehicle only [4]: 100 ^a (84.2%)

Structure (SMILES): CC(OC(N)=O)C(O)c1ccccc1Cl (racemic) [Compound 3, 1-(2-chlorophenyl)-1-hydroxypropyl-2-carbamate]
- MR test ED50, II = Fixed 15 r.p.m. Rotarod [1]: 47.7 mg/kg, bw

Structure (SMILES): CNC(=O)O[C@H](C)[C@H](O)c1ccccc1Cl [Compound 22, 1-(2-chlorophenyl)-(R)-1-hydroxypropyl-(R)-2-N-methylcarbamate]
- MR test ED50, II = Fixed 15 r.p.m. Rotarod [1]: 25.1 mg/kg, bw

Structure (SMILES): CNC(=O)OC(C)C(O)c1ccccc1Cl (racemic) [Compound 29, 1-(2-chlorophenyl)-1-hydroxypropyl-2-N-methylcarbamate]
- MR test ED50, II = Fixed 15 r.p.m. Rotarod [1]: 41.0 mg/kg, bw

Structure (SMILES): C[C@@H](OC(N)=O)[C@H](O)c1ccccc1F [Compound 64, 1-(2-fluorophenyl)-(R)-1-hydroxypropyl-(R)-2-carbamate]
- III = Grip strength, effect (%) compared to that of control treated with vehicle only ([3]; 120 mg/kg administered, intraperitoneal): 120 ^a (35.4%)
- IV = Wire hang, effect (%) compared to that of control treated with vehicle only [4]: 100 ^a (30.8%)

Structure (SMILES): C[C@H](OC(N)=O)[C@@H](O)c1ccccc1Cl [Compound 1, 1-(2-chlorophenyl)-(S)-1-hydroxypropyl-(S)-2-carbamate]
- MR test ED50, II = Fixed 15 r.p.m. Rotarod [1]: 23.3 mg/kg, bw

Reference: patent US9018253B2, “Phenylcarbamate compound and muscle relaxant containing the same” (Bio-Pharm Solutions Co., Ltd., priority 2010, dated 2015)
